Measured values as given in PubChem BioAssay AID1963436 (Molecular Pharmacology Branch, DTP, NCI, 2024).
Several values for one entry are separate records, joined by “and”; a condition that tells them apart may be missing. Identical values can stand only once.

System: OVCAR-5 complex spheroid (HUVEC/MSC), viability % T/C
Experiment: Anticancer human tumor OVCAR-5 cell line growth inhibition [Asc];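 further: spheroids exposed to agents for 7 days before readout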;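 on viability, T/C: 100% = DMSO vehicle-treated wells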
Settings: for viability, T/C: stronger effect = lower value
How it was run: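 Complex solid-tumor spheroids incorporating human endothelial and mesenchymal stem cells received single agents or combinations over half-log dilution ranges anchored to clinical Cmax.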

[1] = curve of first compound, second compound 0.1 µM
[2] = curve of first compound, second compound 0.316 µM
[3] = curve of first compound, second compound 1 µM
[4] = second compound 0.1 µM, first compound 0.0316 µM
[5] = second compound 0.1 µM, first compound 0.1 µM
[6] = second compound 0.1 µM, first compound 0.316 µM
[7] = second compound 0.1 µM, first compound 1 µM
[8] = second compound 0.1 µM, first compound 3.16 µM
[9] = second compound 0.1 µM, first compound 10 µM
[10] = second compound 0.316 µM, first compound 0.0316 µM
[11] = second compound 0.316 µM, first compound 0.1 µM
[12] = second compound 0.316 µM, first compound 0.316 µM
[13] = second compound 0.316 µM, first compound 1 µM
[14] = second compound 0.316 µM, first compound 3.16 µM
[15] = second compound 0.316 µM, first compound 10 µM
[16] = second compound 1 µM, first compound 0.0316 µM
[17] = second compound 1 µM, first compound 0.1 µM
[18] = second compound 1 µM, first compound 0.316 µM
[19] = second compound 1 µM, first compound 1 µM
[20] = second compound 1 µM, first compound 3.16 µM
[21] = second compound 1 µM, first compound 10 µM
[22] = curve of first compound, second compound 0.01 µM
[23] = curve of first compound, second compound 0.0316 µM
[24] = second compound 0.01 µM, first compound 0.0316 µM
[25] = second compound 0.01 µM, first compound 0.1 µM
[26] = second compound 0.01 µM, first compound 0.316 µM
[27] = second compound 0.01 µM, first compound 1 µM
[28] = second compound 0.01 µM, first compound 3.16 µM
[29] = second compound 0.01 µM, first compound 10 µM
[30] = second compound 0.0316 µM, first compound 0.0316 µM
[31] = second compound 0.0316 µM, first compound 0.1 µM
[32] = second compound 0.0316 µM, first compound 0.316 µM
[33] = second compound 0.0316 µM, first compound 1 µM
[34] = second compound 0.0316 µM, first compound 3.16 µM
[35] = second compound 0.0316 µM, first compound 10 µM

C=C(F)C(=O)N1CCN(c2nc(OCC3CCCN3C)nc3c2CCN(c2cccc4cccc(Cl)c24)C3)CC1CC#N (stereo not drawn) + Cc1c(S(C)(=O)=O)c(-c2cc(F)cc(N3CCN(c4ccc(NS(=O)(=O)c5ccc(NC(CCN6CCC(C(=O)OCCCP(=O)(O)O)CC6)CSc6ccccc6)c(S(=O)(=O)C(F)(F)F)c5)cc4)CC3)c2)c(-c2ccc(Cl)cc2)n1C(C)C
IC50 [1]: 0.799 µM | IC50 [2]: 0.587 µM | IC50 [3]: 0.649 µM | IC50 (curve of first compound, second compound 3.16 µM): 0.561 µM | IC50 (curve of first compound, second compound 10 µM): 0.643 µM | viability, T/C [4]: 88.7% | viability, T/C [5]: 96.8% | viability, T/C [6]: 79.9% | viability, T/C [7]: 43.7% | viability, T/C [8]: 1.2% | viability, T/C [9]: 0.31% | viability, T/C [10]: 93.5% | viability, T/C [11]: 98% | viability, T/C [12]: 78.3% | viability, T/C [13]: 25.4% | viability, T/C [14]: 1.91% | viability, T/C [15]: 0.12% | viability, T/C [16]: 81.5% | viability, T/C [17]: 89% | viability, T/C [18]: 83.3% | viability, T/C [19]: 29.9% | viability, T/C [20]: 0.65% | viability, T/C [21]: 0.74% | viability, T/C (second compound 3.16 µM, first compound 0.0316 µM): 90% | viability, T/C (second compound 3.16 µM, first compound 0.1 µM): 92.3% | viability, T/C (second compound 3.16 µM, first compound 0.316 µM): 80.1% | viability, T/C (second compound 3.16 µM, first compound 1 µM): 19.6% | viability, T/C (second compound 3.16 µM, first compound 3.16 µM): 0.82% | viability, T/C (second compound 3.16 µM, first compound 10 µM): 0.14% | viability, T/C (second compound 10 µM, first compound 0.0316 µM): 111% | viability, T/C (second compound 10 µM, first compound 0.1 µM): 131% | viability, T/C (second compound 10 µM, first compound 0.316 µM): 106% | viability, T/C (second compound 10 µM, first compound 1 µM): 15.1% | viability, T/C (second compound 10 µM, first compound 3.16 µM): 0.46% | viability, T/C (second compound 10 µM, first compound 10 µM): 0.21%

CNC(C)C(=O)NC1CN(S(=O)(=O)c2cccc(S(=O)(=O)N3CCC4CCC(C(=O)NC(c5ccccc5)c5ccccc5)N4C(=O)C(NC(=O)C(C)NC)C3)c2)CCC2CCC(C(=O)NC(c3ccccc3)c3ccccc3)N2C1=O (stereo not drawn)
viability, T/C (compound 0.00316 µM): 97.5% and 104% | viability, T/C (compound 0.01 µM): 95.1% [middle of 15 runs] | viability, T/C (compound 0.0316 µM): 83.1% [middle of 15 runs] | viability, T/C (compound 0.1 µM): 80.8% [middle of 15 runs] | viability, T/C (compound 0.316 µM): 81.5% [middle of 15 runs] | viability, T/C (compound 1 µM): 80.3% [middle of 15 runs] | IC50 (compound alone, run of 10/03/2022): > 1 µM | IC50 (curve of compound): > 1 µM

C#Cc1c(F)ccc2cc(O)cc(-c3ncc4c(N5CC6CCC(C5)N6)nc(OCC56CCCN5CC(F)C6)nc4c3F)c12 (stereo not drawn) + CNC(C)C(=O)NC1CN(S(=O)(=O)c2cccc(S(=O)(=O)N3CCC4CCC(C(=O)NC(c5ccccc5)c5ccccc5)N4C(=O)C(NC(=O)C(C)NC)C3)c2)CCC2CCC(C(=O)NC(c3ccccc3)c3ccccc3)N2C1=O
IC50 [22]: 6.86 µM | IC50 [23]: 6.23 µM | IC50 [1]: 5.08 µM | IC50 [2]: 4.98 µM | IC50 [3]: 5.11 µM | viability, T/C [24]: 97% | viability, T/C [25]: 99.1% | viability, T/C [26]: 95.8% | viability, T/C [27]: 84.2% | viability, T/C [28]: 70.8% | viability, T/C [29]: 40.2% | viability, T/C [30]: 90.2% | viability, T/C [31]: 88.1% | viability, T/C [32]: 91.8% | viability, T/C [33]: 68.5% | viability, T/C [34]: 66.5% | viability, T/C [35]: 40.3% | viability, T/C [4]: 84.9% | viability, T/C [5]: 89.5% | viability, T/C [6]: 76.2% | viability, T/C [7]: 64.8% | viability, T/C [8]: 63.6% | viability, T/C [9]: 37% | viability, T/C [10]: 84.5% | viability, T/C [11]: 84.2% | viability, T/C [12]: 75.3% | viability, T/C [13]: 65.9% | viability, T/C [14]: 61.2% | viability, T/C [15]: 37.8% | viability, T/C [16]: 93.3% | viability, T/C [17]: 95.2% | viability, T/C [18]: 76.1% | viability, T/C [19]: 71% | viability, T/C [20]: 65% | viability, T/C [21]: 35.2%

O=C(c1cc(Cc2n[nH]c(=O)c3ccccc23)ccc1F)N1CCN(C(=O)C2CC2)CC1 + CNC(C)C(=O)NC1CN(S(=O)(=O)c2cccc(S(=O)(=O)N3CCC4CCC(C(=O)NC(c5ccccc5)c5ccccc5)N4C(=O)C(NC(=O)C(C)NC)C3)c2)CCC2CCC(C(=O)NC(c3ccccc3)c3ccccc3)N2C1=O
IC50 [22]: > 10 µM | IC50 [23]: > 10 µM | IC50 [1]: > 10 µM | IC50 [2]: > 10 µM | IC50 [3]: > 10 µM | viability, T/C [24]: 97.3% | viability, T/C [25]: 95.8% | viability, T/C [26]: 87.1% | viability, T/C [27]: 96.2% | viability, T/C [28]: 80.5% | viability, T/C [29]: 70.3% | viability, T/C [30]: 81.4% | viability, T/C [31]: 88.3% | viability, T/C [32]: 81.7% | viability, T/C [33]: 74.6% | viability, T/C [34]: 77.9% | viability, T/C [35]: 67.9% | viability, T/C [4]: 84.9% | viability, T/C [5]: 95.6% | viability, T/C [6]: 77.9% | viability, T/C [7]: 74.8% | viability, T/C [8]: 75.1% | viability, T/C [9]: 55.5% | viability, T/C [10]: 77.4% | viability, T/C [11]: 75.5% | viability, T/C [12]: 80.7% | viability, T/C [13]: 75.5% | viability, T/C [14]: 67.2% | viability, T/C [15]: 62% | viability, T/C [16]: 83.5% | viability, T/C [17]: 76.1% | viability, T/C [18]: 88.9% | viability, T/C [19]: 73.8% | viability, T/C [20]: 65.3% | viability, T/C [21]: 55.9%
